Test results published in patent US20120270908A1, “SUBSTITUTED 3 -HYDROZYPYRIDINES AND PHARMACEUTICAL COMPOSITIONS THEREOF” (priority 2007, published 2012).

Tests used:
[1] = system: streptozotocin-induced male albino Wistar rats; experiment: Streptozotocin-induced decompensated insulin resistance in rats: fasting serum glucose, plasma insulin, plasma triglycerides; assay type: in vivo; details: mean±SEM (n=10); for Glucose: fasting serum; for Insulin / Triglycerides: plasma
Procedure: The rats with glucose levels more than 14.0 mmol/1 were used in the experiment one week after the streptozotocin injection.
Streptozotocin-induced rats were assigned to three groups: a control rats (n=10) and experimental rats (n=20). Control rats received daily i.p. injections of saline for 7 days. Experimental rats received daily i.p. injections of 10 mg/kg 2-Ethyl-4,6-dimethyl-3-hydroxypyridine, succinic acid salt (1:1); or 2-Ethyl-4,5,6-trimethyl-3-hydroxypyridine, succinic acid salt (1:1) for 7 days. Biochemical parameters were determined just before start of the treatment and on 14 day from the start of the treatment.

[2] = target: T1, insulin receptor (Homo sapiens, UniProt P06213); experiment: Activation of insulin receptor in HepG2 cells: phosphorylation of tyrosine residues 1162/1163, PhosphoDetect insulin receptor ELISA kit; assay type: cell-based; details: 10 min, PBS with 5 mM glucose, percentage of the response to 100 nM insulin, mean±SEM (n=8)
T1 construct: endogenous in cells; host or cells: HepG2 (human hepatoma)
Source text: It is generally recognized that the phosphorylation increase activity of receptor to about 200-fold as compared to unphosphorylated one.

[3] = 14 Day from start, 10 mg/kg i.p. daily for 7 days
[4] = before treatment (baseline of the group)

T1 sequence (P06213 28-758 limits assumed): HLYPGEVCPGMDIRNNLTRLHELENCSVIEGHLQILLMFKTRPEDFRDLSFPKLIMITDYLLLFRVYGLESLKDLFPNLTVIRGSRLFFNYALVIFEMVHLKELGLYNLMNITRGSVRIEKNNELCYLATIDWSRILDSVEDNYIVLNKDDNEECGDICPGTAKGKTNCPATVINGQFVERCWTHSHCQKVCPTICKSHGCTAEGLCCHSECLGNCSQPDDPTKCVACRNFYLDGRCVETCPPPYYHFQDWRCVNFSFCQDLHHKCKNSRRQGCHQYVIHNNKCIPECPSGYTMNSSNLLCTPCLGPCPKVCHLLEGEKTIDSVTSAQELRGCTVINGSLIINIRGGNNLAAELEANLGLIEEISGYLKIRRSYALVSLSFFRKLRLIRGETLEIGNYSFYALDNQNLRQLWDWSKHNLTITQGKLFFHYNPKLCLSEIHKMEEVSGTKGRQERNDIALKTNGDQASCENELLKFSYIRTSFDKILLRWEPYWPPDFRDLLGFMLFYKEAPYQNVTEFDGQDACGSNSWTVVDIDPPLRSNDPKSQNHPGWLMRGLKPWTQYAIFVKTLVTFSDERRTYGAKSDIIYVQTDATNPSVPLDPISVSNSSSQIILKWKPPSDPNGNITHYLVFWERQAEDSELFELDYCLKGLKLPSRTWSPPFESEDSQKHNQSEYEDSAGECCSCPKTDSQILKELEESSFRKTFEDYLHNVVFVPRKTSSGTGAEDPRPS
T1 sequence (P06213 763-1382 limits assumed): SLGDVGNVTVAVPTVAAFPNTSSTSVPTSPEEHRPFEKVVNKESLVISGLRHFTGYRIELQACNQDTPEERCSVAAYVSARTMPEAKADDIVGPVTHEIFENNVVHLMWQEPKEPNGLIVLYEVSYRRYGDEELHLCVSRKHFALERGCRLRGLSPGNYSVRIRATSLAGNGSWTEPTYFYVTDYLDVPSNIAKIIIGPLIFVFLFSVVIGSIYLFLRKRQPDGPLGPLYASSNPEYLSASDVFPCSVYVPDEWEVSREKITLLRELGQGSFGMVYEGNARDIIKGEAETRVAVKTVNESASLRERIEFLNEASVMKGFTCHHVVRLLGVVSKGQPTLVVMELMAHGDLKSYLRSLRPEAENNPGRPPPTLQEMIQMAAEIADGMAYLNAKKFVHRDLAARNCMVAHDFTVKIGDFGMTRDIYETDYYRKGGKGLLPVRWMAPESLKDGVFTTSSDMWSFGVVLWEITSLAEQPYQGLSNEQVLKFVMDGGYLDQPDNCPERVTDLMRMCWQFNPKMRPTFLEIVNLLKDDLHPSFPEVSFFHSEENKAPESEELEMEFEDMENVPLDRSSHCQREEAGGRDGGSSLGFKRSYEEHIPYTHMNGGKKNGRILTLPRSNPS

SMILES | Glucose [1, 3] | Glucose [1, 4] | Insulin [1, 3] | Triglycerides [1, 3] | Insulin [1, 4] | Triglycerides [1, 4] | Insulin receptor phosphorylation, % ([2]; compound 50 μM alone) | Insulin receptor phosphorylation, % ([2]; insulin 5 nM + compound 50 μM)
CCc1nc(C)c(C)c(C)c1O.O=C(O)CCC(=O)O [2-Ethyl-4,5,6-trimethyl-3-hydroxypyridine, succinic acid salt (1:1)] | 7.3 ± 1.1 mmol/L | 16.0 ± 2.6 mmol/L | 2.3 ± 0.5 ng/mL | 1.6 ± 0.3 mmol/L | 11.4 ± 2.0 ng/mL | 3.1 ± 0.2 mmol/L | 13 ± 2% | 62 ± 8 %
CCc1nc(C)cc(C)c1O.O=C(O)CCC(=O)O [2-Ethyl-4,6-dimethyl-3-hydroxypyridine, succinic acid salt (1:1)] | 8.5 ± 1.3 mmol/L | 15.9 ± 2.1 mmol/L | 2.9 ± 0.4 ng/mL | 1.8 ± 0.4 mmol/L | 11.2 ± 1.7 ng/mL | 2.9 ± 0.4 mmol/L | 14 ± 4% | 56 ± 7 %
